{"source": "patent US20110245283A1", "about": "“Methods for predicting the response to statins” (priority 2009, published 2011)", "key": {"LDL [1]": {"system": "LDL", "experiment": "Logistic regression models of attaining LDL goal: odds ratios for concurrent or prior drug doses", "assay_type": "in vivo, patients", "experimental": "G. Covariates for the multivariate model—The following list includes the predictors one or more of which may be tested in the multivariate models. • 1. AGE: (expressed in units of 10 years) at time that the new statin prescription was released • 2. GENDER, E. G., MALE: 1=yes, 0=no • 3. BMI (kg/M^2): last value before release date • 4. HBA1C (hemoglobin Alc): last value before release date • 5. PLDL: preceding LDL level expressed in e.g. 10 mg/dl units • 6. Statins • a. PLOVA: prior daily dose of lovastatin expressed in e.g. 10 mg units • b. […] For additional drugs: • a. AMIODOSE: amiodarone dose in mg/day • b. CARBDOSE: carbemazepine dose in mg/day • c. PIOGDOSE: pioglitazone dose expressed as number of 15 mg doses per day • d. […] METFDOSE: metformin dose expressed as number of 1000 mg doses per day • f. PHENDOSE: phenyloin dose in mg/day • g. RISPDOSE: risperidone dose in mg/day • h. ROSIDOSE: rosiglitazone dose in mg/day • i.\nBody mass index (BMI) was chosen as a covariate of statin response because obese patients tend to consume a diet high in cholesterol. It was hypothesized that they would respond less well to statins because their hypercholesterolemia was more likely to be mediated by dietary indiscretion than excessive LDL synthesis. […] Metformin and the thiazolidinediones were chosen because they reduce LDL levels in diabetic patients through mechanisms that may or may not be affected by concurrent statin treatment. The remaining non-statin drugs were chosen because they are commonly used drugs that potentiate the effect of statins. They were selected by reviewing the official on-line VA pharmaceutical reference (Micromedex®) for major interactions mediated by impaired statin metabolism. […] The daily dose of the non-statin drug was calculated by the method described in Section B.\nH. Assembling the predictor file—The patient identifier was used to link the new statin prescription type and dose, the preceding LDL above goal, and the type and dose of the previous statin (if any) with the patient's most recent HbA1c, most recent BMI, and the daily doses of 9 drugs with major statin interactions that were active at the time the new prescription was released.\nThe dependent variable was attainment of goal (LDL <100 mg/dl). […] Step selections were based upon the maximal likelihood method with α<0.15 to enter and ≧0.15 to remove."}, "LDL [2]": {"system": "LDL", "details": "second study named in the background; any dose adjustment or change; cited from earlier work"}, "LDL [3]": {"system": "LDL", "details": "cited from earlier work"}, "LDL [4]": {"system": "LDL", "experiment": "Proportion of CAD patients attaining LDL goal (<100 mg/dl) on a statin dose; validation sets stratified by predicted probability", "details": "for Proportion of patients achieving goal: validation set"}}, "note": "Read-outs that look alike come from different tables or passages of the source.", "data": [{"smiles": "CC[C@H](C)C(=O)O[C@H]1C[C@@H](C)C=C2C=C[C@H](C)[C@H](CC[C@@H]3C[C@@H](O)CC(=O)O3)[C@H]21", "note": "[Lovastatin, lovastatin]", "values": [{"measurement": "OR", "setting": "LDL [1]; odds of goal LDL <100 mg/dl, Lovastatin 20 mg [A] model (includes HbA1c; n = 595), per dose increment", "result": 0.768}, {"measurement": "OR", "setting": "LDL [1]; odds of goal, Lovastatin 20 mg [B] model (excludes HbA1c; n = 733), per dose increment", "result": 0.542}, {"measurement": "OR", "setting": "LDL [1]; odds of goal, Lovastatin 40 mg model (n = 764), per dose increment", "result": 0.768}, {"measurement": "OR", "setting": "LDL [1]; odds of goal, Lovastatin 80 model (n = 309), per dose increment", "result": 0.868}, {"measurement": "OR", "setting": "LDL [1]; odds of goal, Model 1, Lovastatin 20 mg, per 10 mg/day", "result": 0.593}, {"measurement": "OR", "setting": "LDL [1]; odds of goal, Model 1, Lovastatin 40 mg, per 10 mg/day", "result": 0.770}, {"measurement": "OR", "setting": "LDL [1]; odds of goal, Model 1, Lovastatin 80 mg, per 10 mg/day", "result": 0.868}, {"measurement": "OR", "setting": "LDL [1]; odds of goal, Model 1, Simvastatin 10 mg, per 10 mg/day", "result": 0.434}, {"measurement": "OR", "setting": "LDL [1]; odds of goal, Model 1, Simvastatin 20 mg, per 10 mg/day", "result": 0.615}, {"measurement": "OR", "setting": "LDL [1]; odds of goal, Model 1, Simvastatin 40 mg, per 10 mg/day", "result": 0.928}, {"measurement": "OR", "setting": "LDL [1]; odds of goal, Model 1, Simvastatin 80 mg, per 10 mg/day", "result": 1.04}, {"measurement": "OR", "setting": "LDL [1]; odds of goal, Simvastatin 10 mg [B] model (includes BMI; n = 136), per dose increment", "result": 0.341}, {"measurement": "OR", "setting": "LDL [1]; odds of goal, Simvastatin 10 mg [C] model (excludes BMI; n = 219), per dose increment", "result": 0.382}, {"measurement": "OR", "setting": "LDL [1]; odds of goal, Simvastatin 20 mg model (n = 374), per dose increment", "result": 0.617}, {"measurement": "OR", "setting": "LDL [1]; odds of goal, Simvastatin 40 mg model (n = 698), per dose increment", "result": 0.921}, {"measurement": "Success of dose adjustment (reaching LDL goal)", "setting": "LDL [2]", "result": "≤ 50", "unit": "%"}, {"measurement": "Average LDL reduction", "setting": "LDL [3]; Dose 20 mg", "result": 29, "unit": "%"}, {"measurement": "Average LDL reduction", "setting": "LDL [3]; Dose 40 mg", "result": 31, "unit": "%"}, {"measurement": "Average LDL reduction", "setting": "LDL [3]; Dose 80 mg", "result": "40-48%"}, {"measurement": "Proportion of patients achieving goal", "setting": "LDL [4]; Lovastatin 10 mg model, Overall", "result": 36.8, "unit": "%"}, {"measurement": "Proportion of patients achieving goal", "setting": "LDL [4]; Lovastatin 10 mg model, predicted probability 0-19%", "result": 10.9, "unit": "%"}, {"measurement": "Proportion of patients achieving goal", "setting": "LDL [4]; Lovastatin 10 mg model, predicted probability 20-39%", "result": 31.3, "unit": "%"}, {"measurement": "Proportion of patients achieving goal", "setting": "LDL [4]; Lovastatin 10 mg model, predicted probability 40-59%", "result": 46.8, "unit": "%"}, {"measurement": "Proportion of patients achieving goal", "setting": "LDL [4]; Lovastatin 10 mg model, predicted probability 60-79%", "result": 73.3, "unit": "%"}, {"measurement": "Proportion of patients achieving goal", "setting": "LDL [4]; Lovastatin 20 mg [A] model, Overall", "result": 49.2, "unit": "%"}, {"measurement": "Proportion of patients achieving goal", "setting": "LDL [4]; Lovastatin 20 mg [A] model, predicted probability 0-19%", "result": 15.0, "unit": "%"}, {"measurement": "Proportion of patients achieving goal", "setting": "LDL [4]; Lovastatin 20 mg [A] model, predicted probability 20-39%", "result": 25.8, "unit": "%"}, {"measurement": "Proportion of patients achieving goal", "setting": "LDL [4]; Lovastatin 20 mg [A] model, predicted probability 40-59%", "result": 55.1, "unit": "%"}, {"measurement": "Proportion of patients achieving goal", "setting": "LDL [4]; Lovastatin 20 mg [A] model, predicted probability 60-79%", "result": 73.0, "unit": "%"}, {"measurement": "Proportion of patients achieving goal", "setting": "LDL [4]; Lovastatin 20 mg [A] model, predicted probability 80-100%", "result": 71.4, "unit": "%"}, {"measurement": "Proportion of patients achieving goal", "setting": "LDL [4]; Lovastatin 20 mg [B] model, Overall", "result": 49.3, "unit": "%"}, {"measurement": "Proportion of patients achieving goal", "setting": "LDL [4]; Lovastatin 20 mg [B] model, predicted probability 0-19%", "result": 12.7, "unit": "%"}, {"measurement": "Proportion of patients achieving goal", "setting": "LDL [4]; Lovastatin 20 mg [B] model, predicted probability 20-39%", "result": 33.0, "unit": "%"}, {"measurement": "Proportion of patients achieving goal", "setting": "LDL [4]; Lovastatin 20 mg [B] model, predicted probability 40-59%", "result": 53.6, "unit": "%"}, {"measurement": "Proportion of patients achieving goal", "setting": "LDL [4]; Lovastatin 20 mg [B] model, predicted probability 60-79%", "result": 75.0, "unit": "%"}, {"measurement": "Proportion of patients achieving goal", "setting": "LDL [4]; Lovastatin 20 mg [B] model, predicted probability 80-100%", "result": 64.7, "unit": "%"}, {"measurement": "Proportion of patients achieving goal", "setting": "LDL [4]; Lovastatin 40 mg model, Overall", "result": 49.3, "unit": "%"}, {"measurement": "Proportion of patients achieving goal", "setting": "LDL [4]; Lovastatin 40 mg model, predicted probability 0-19%", "result": 11.1, "unit": "%"}, {"measurement": "Proportion of patients achieving goal", "setting": "LDL [4]; Lovastatin 40 mg model, predicted probability 20-39%", "result": 31.2, "unit": "%"}, {"measurement": "Proportion of patients achieving goal", "setting": "LDL [4]; Lovastatin 40 mg model, predicted probability 40-59%", "result": 50.7, "unit": "%"}, {"measurement": "Proportion of patients achieving goal", "setting": "LDL [4]; Lovastatin 40 mg model, predicted probability 60-79%", "result": 70.7, "unit": "%"}, {"measurement": "Proportion of patients achieving goal", "setting": "LDL [4]; Lovastatin 40 mg model, predicted probability 80-100%", "result": 100, "unit": "%"}, {"measurement": "Proportion of patients achieving goal", "setting": "LDL [4]; Model 1, lovastatin 10 mg, Overall", "result": 36.8, "unit": "%"}, {"measurement": "Proportion of patients achieving goal", "setting": "LDL [4]; Model 1, lovastatin 10 mg, predicted probability 0-19%", "result": 10.9, "unit": "%"}, {"measurement": "Proportion of patients achieving goal", "setting": "LDL [4]; Model 1, lovastatin 10 mg, predicted probability 20-39%", "result": 31.3, "unit": "%"}, {"measurement": "Proportion of patients achieving goal", "setting": "LDL [4]; Model 1, lovastatin 10 mg, predicted probability 40-59%", "result": 46.8, "unit": "%"}, {"measurement": "Proportion of patients achieving goal", "setting": "LDL [4]; Model 1, lovastatin 10 mg, predicted probability 60-79%", "result": 73.3, "unit": "%"}, {"measurement": "Proportion of patients achieving goal", "setting": "LDL [4]; Model 1, lovastatin 20 mg, Overall", "result": 47.4, "unit": "%"}, {"measurement": "Proportion of patients achieving goal", "setting": "LDL [4]; Model 1, lovastatin 20 mg, predicted probability 0-19%", "result": 8.5, "unit": "%"}, {"measurement": "Proportion of patients achieving goal", "setting": "LDL [4]; Model 1, lovastatin 20 mg, predicted probability 20-39%", "result": 29.0, "unit": "%"}, {"measurement": "Proportion of patients achieving goal", "setting": "LDL [4]; Model 1, lovastatin 20 mg, predicted probability 40-59%", "result": 54.4, "unit": "%"}, {"measurement": "Proportion of patients achieving goal", "setting": "LDL [4]; Model 1, lovastatin 20 mg, predicted probability 60-79%", "result": 74.6, "unit": "%"}, {"measurement": "Proportion of patients achieving goal", "setting": "LDL [4]; Model 1, lovastatin 40 mg, Overall", "result": 49.3, "unit": "%"}, {"measurement": "Proportion of patients achieving goal", "setting": "LDL [4]; Model 1, lovastatin 40 mg, predicted probability 0-19%", "result": 11.1, "unit": "%"}, {"measurement": "Proportion of patients achieving goal", "setting": "LDL [4]; Model 1, lovastatin 40 mg, predicted probability 20-39%", "result": 33.3, "unit": "%"}, {"measurement": "Proportion of patients achieving goal", "setting": "LDL [4]; Model 1, lovastatin 40 mg, predicted probability 40-59%", "result": 49.1, "unit": "%"}, {"measurement": "Proportion of patients achieving goal", "setting": "LDL [4]; Model 1, lovastatin 40 mg, predicted probability 60-79%", "result": 73.2, "unit": "%"}, {"measurement": "Chance of success (reaching goal) of any dose choice", "setting": "LDL [4]; this study, all doses", "result": "≤ 50", "unit": "%"}]}]}
